US6218112A, “Optimization of gene delivery and gene delivery system” (Cobra Therapeutics Limited, priority 1997, dated 2001)
* marks the point of attachment. Acm = CC(=O)NC*

Tests used:
[1] = system: plasmid nucleic acid pRSVLuc; assay: Surface plasmon resonance (BIAcore) binding kinetics of peptides/conjugates to immobilized biotinylated plasmid DNA; conditions: for ka: apparent rate constant for association; for ka / kd: SPR, PBS, 25° C.; for kd: apparent rate constant for dissociation
Experimental: In the examples described below, SPR was detected using the BIAcore system. This machine contained an SPR detector and an integrated microfluidic cartridge which is engineered such that an analyte solution (cationic peptide) is continuously passed over the sensor chip. The sensor chip consists of a glass plate coated with a thin film of gold covered in a layer of carboyxymethyl dextran. The chip used has a dextran layer to which streptavidin is covalently attached. The chip is prepared for use by adding biotinylated nucleic acid which will be bound to the chip via the streptavidin-biotin interaction, and the same chip is used in a series of experiments.
As material binds to the immobilized nucleic acid molecule on the sensor chip, the SPR angle of plane polarized light shining on the surface of the chip is monitored by the detector. Changes in angle are defined as resonance units (RU) and data are collected every second. Background effects are detected and automatically subtracted by the use of a control flow cell in line with the nucleic acid flow cell.
A typical sensorgram has three phases: an association phase, an equilibrium phase and a dissociation phase (see FIG. 1). The rise in signal occurs as more peptide binds to the immobilized plasmid DNA until equilibrium conditions are reached. The height of the peak is directly proportional to the mass of peptide bound. If the flow continues with buffer containing no peptide, peptide begins to dissociate from the complex and the resonance signal is reduced. The sensorgram can be used to compute apparent rate constants for each of the three individual processes.
(1) dC/dt=ka [PF ] [Pmax -PB ]-kd [PB ]
Measurement of Binding Kinetics by Surface Plasmon Resonance
A 6 kilobase (kb) plasmid DNA (pRSVLuc) was biotinylated using photoactivatable biotin (Pierce and Warriner) as per manufacturer's instructions.
A sensor chip with immobilized streptavidin (SA5) was conditioned following manufacturer's instructions, i.e., three one-minute injections of 1 M NaCl: 50 mM NaOH followed by one 1 min injection of 0.5% SDS. Flow rate on the BlAcore sensing device was 20 μl per min, running buffer was phosphate buffered saline (PBS). Flow path was flow cells 1 and 2.
The flow path was switched to flow cell 2 only and the flow rate was reduced to 10 μl per minute. Biotinylated plasmid at a concentration of […] in 0.5M NaCl was injected for 3 mins.
Phosphate buffered saline was used as running buffer at a flow rate of 20 μl per minute. The flow path was over flow cells 1 and 2. Flow cell 1 was used as a reference cell. The experiments were carried out at a temperature of 25° C.
Peptides were injected at various concentrations for three minutes. The injection was followed by a 5 min dissociation phase before the injection port was washed. The sensor chip was regenerated by the injection of 2M NaCl for 1 min. If necessary, this injection was repeated to bring the response back down to baseline before the next peptide sample was injected.
The data was analysed using the methods described in the handbook (BIAevaluation 2.1. Software Handbook, Pharmacia Biosensor AB, Uppsala, Sweden).
Essentially the plots were evaluated as follows: The dissociation constant, kd, was determined first. A curve or family of curves (same NBC at different concentrations) were plotted as response (Y) versus time as Ln (Yo/Y) versus time. In the area where the Ln(Yo/Y) curve was linear, a fit of the default dissociation model [AB]=[A]+[B] was made. The association constant, ka, was then calculated by fitting the related association model on that part of the association curve where a plot of In(abs(dY/dt) versus time was linear. KD were approximated by dividing the calculated kd with the calculated ka.

[2] = system: KLN-205 squamous epithelial syngenic tumour cells; assay: In vivo transfection of KLN-205 tumours in DBA2 mice by local injection of peptide/plasmid complexes (nitroreductase immunostaining); design: species or system mouse; conditions: 0.5 μg peptide/μg DNA, intratumoural injection
Experimental: A representative in via cell transfection system is transfection of tumor cells using a murine carcinoma model.
The murine carcinoma model DBA2 containing the squamous epithelial syngenic tumour cell line KLN-205 was prepared as described in the Examples. A transfecting complex was prepared using a solution of plasmid DNA encoding a reporter gene or, for example, nitroreductase and a selected NBC peptide 0.5 μg peptide/μg DNA, as described herein. Where desired, a conjugate peptide was added to the transfecting complex, at a concentration of 0.1-0.3 μg […] peptide/μg DNA.
Transfection efficiency may be determined in a number of ways, including assessing the effect of the reporter gene on the target tissue, or by quantitating the gene product. Below, tissues samples were obtained and nitroreductase gene expression was ascertained via staining of tissue sections.
The ability to transfect tumor cells in vivo in mice was tested using plasmid nucleic acid carrying the nitroreductase reporter gene condensed on each of the following peptides: NBC15, NBC8, NBC9, NBC11, NBC7.
DBA2--male mice, aged 5-10 weeks were injected subcutaneously in each flank with a squamous epithelial syngenic tumour cell line KLN-205. The cell line was grown up in 175 ml T-flasks in standard EMEM medium containing 10% foetal calf serum. When the cells reached a density of 4×10^6 they were suspended by a standard trypsinization technique, washed in PBS and diluted to a final concentration of […].
The anaesthetic was Enflurane (Alynane; Anaquest, Ltd., Windlesham, Surrey UK): Ketamine (10% Ketaset, Willows Francis Veterinary, Cramley, West Sussex, UK); Rompun (2%, Bayer UK, Ltd., Suffolk, UK). For 10 ml anaesthetic mixture: 8.5 ml PBS; 1 ml Ketamine; 0.5 ml Rompun. Each animal was injected intra-peritoneally with 200 μl/animal using 1 ml syringe with 25 gauge needle. Once anaesthetized, the tumour is manipulated between the fingers lifting it slightly away from the animal's body and at the same time apply minimum pressure to the tumour. Using a 0.5 ml insulin needle the formulated delivery vehicle (a plasmid containing the E. coli nitroreductase gene condensed on a peptide at a ratio of 0.5 μg peptide/μg DNA) to be injected is taken up and the tumour is injected horizontally trying to avoid any visible blood vessels and necrotic or abnormal tissue. Daily monitoring is continued until the experiment is terminated.
7μ sections of frozen tumour tissue are prepared using standard methods and a Cryostat and air dried. Sections are fixed with freshly prepared 4% PFA/PBS for 30 mins at room temperature and then washed twice with 0.01% Tween-20/PBS 5 mins each wash. Sections are then immersed in 0.25% hydrogen peroxide/PBS, at room temperature (20C.) for 30 mins, and then washed three times in 0.01% Tween 20/PBS for 5 mins each wash. Sections are then permeabilised by treatment with ice cold 0.1 % TRITON X-100 for 5 mins, followed by a further two washes in 0.01% Tween-20/PBS 5mins each wash. The sections are then blocked with 5% NGS/PBS 60mins at room temperature in a wetbox. After decanting the blocking solution, 0.5 ml diluted antiserum/slide (1:400 in 2.5% NGS) is added and the sections incubated for 60 mins at room temperature. Slides are then washed three times in 0.01% Tween-20/PBS 5 mins each wash. Secondary antibody (0.5 ml) from ABC Elite Vector stain kit is added as follows and incubated 30 mins at room temperature in a wetbox.
The tumour is a murine syngenic squamous carcinoma produced by subcutaneous injection of KLN205 cells. When the tumours were approximately 4 mm in diameter they were injected with 20 μl of plasmid DNA formulated with the NBC15 peptide. After 48 h the tumours were excised and sectioned by standard histological techniques and immunostained for expression of the transgene (E. coli nitroreductase). […] In this case the tumours were injected with the same plasmid formulated in 0.5 μg NBC9 peptide/μg DNA.

Jurkat cell line = assay: In vitro transfection with pRSVLuc (luciferase) condensed on peptides; assay type: cell-based; conditions: peptide 2 μg/μg plasmid DNA
Experimental: After incubation the cells are lysed and are assayed for gene expression. In the case of the luciferase reporter gene, luciferin and ATP are added to lysed cells and the light emitted is measured with a luminometer (see deWet et al., supra).
Cell lines such as Jurkat and K562 grow in suspension and can be transfected and the level of transgene expression (luciferase activity) determined b) the following method. Cells are harvested on the day of assay by centrifugation at 1200 rpm for 5 mins at room temperature. The cell pellet is resuspended in phosphate buffered saline and re-centrifuged. This operation is performed twice. […] The cells are then aliquoted into tubes and 0.75 ml of RPMI medium added, followed by 0.04-0.08 ml of 100 mM Chloroquine and finally 0.25 ml of DNA-complex solution. The transfection is then allowed to proceed by incubating the cells at 37° C. for 4 h. After this time the cells are harvested by centrifugation at 2000 rpm. The cells are then suspended in 1 ml of RPMI medium and re-centrifuged. Finally the cells are suspended in 0.5 ml RPMI medium containing 10% foetal bovine serum. Each 0.5 ml of transfected cell suspension is transferred to a well of a 12 well plastic culture plate containing 1.5 ml of RPMI 10% FBS. The original transfection tube is rinsed with a further 1 ml of medium and the wash transferred to the culture dish making a final volume of 3 ml. The culture plate is then incubated at 37° C. for 24-90 h in an atmosphere of 5% CO2. The contents of each well in the culture dish are transferred to centrifuge tubes and the cells collected by centrifugation at 13000 rpm. The pellet is resuspended in 0.12 ml of Lysis Buffer (100 mM sodium phosphate, pH 7.8; 8 mM magnesium chloride, 1 mM EDTA; 1% Triton X-100 and 15% glycerol) and agitated with a pipette. The lysate is centrifuged at 13000 rpm for 1 min and the supernatant collected. 80 μl of the supernatant are transferred to a luminometer tube. The luciferase activity is then assayed using a Berthold Lumat L9501 luminometer. The assay buffer used is Lysis Buffer containing 10 mM Luciferin and 100 mM ATP. Light produced by the luciferase is integrated over 4s and is described as relative light units (RLU). The data are converted to RLU/ml of lysate, RLU/cell or RLU/mg protein (protein concentration of the lysate having been determined in this case by the BioRAD Lowry assay.
In order to compare the relative efficiency of transfection of complexes composed of different NBC condensation peptides or poly-L-lysine, pRSVLuc DNA at a concentration of 100 μg/ml was condensed using peptide at a ratio of 2 μg/μg plasmid DNA as described herein with the following deviation: prior to addition to the cells (Jurkat cell line) the complexes were diluted to 20 μg/ml with 10% PEG 10 000; 37 mM sodium chloride; 25 mM sodium phosphate, pH 7.4. The cells were assayed for luciferase after 24 h.

Row | Substance | ka [1] [M⁻¹ s⁻¹] | kd [1] [s⁻¹] | ranking by numbers of transfected tumor cells (most to least efficient) [2] | number of transfected tumor cells / level of transfection ([2]; 48 h, nitroreductase immunostaining) | association reaction ([1]; shape of association kinetics) | transfection compared with polydisperse poly-L-lysine (Jurkat cell line; luciferase) | rank in order of relative transfection efficiency (most to least efficient) (Jurkat cell line; luciferase after 24 h, FIG. 7)
1 | NH2-TKKSPKKAKKPAAKKSPKKAKKPAAKKSPKKAKKPAAC(Acm)-COOH (H-TKKSPKKAKKPAAKKSPKKAKKPAAKKSPKKAKKPAAC(Acm)-OH; SMILES CC(=O)NCSC[C@H](NC(=O)[C@H](C)NC(=O)[C@H](C)NC(=O)[C@@H]1CCCN1C(=O)[C@H](CCCCN)NC(=O)[C@H](CCCCN)NC(=O)[C@H](C)NC(=O)[C@H](CCCCN)NC(=O)[C@H](CCCCN)NC(=O)[C@@H]1CCCN1C(=O)[C@H](CO)NC(=O)[C@H](CCCCN)NC(=O)[C@H](CCCCN)NC(=O)[C@H](C)NC(=O)[C@H](C)NC(=O)[C@@H]1CCCN1C(=O)[C@H](CCCCN)NC(=O)[C@H](CCCCN)NC(=O)[C@H](C)NC(=O)[C@H](CCCCN)NC(=O)[C@H](CCCCN)NC(=O)[C@@H]1CCCN1C(=O)[C@H](CO)NC(=O)[C@H](CCCCN)NC(=O)[C@H](CCCCN)NC(=O)[C@H](C)NC(=O)[C@H](C)NC(=O)[C@@H]1CCCN1C(=O)[C@H](CCCCN)NC(=O)[C@H](CCCCN)NC(=O)[C@H](C)NC(=O)[C@H](CCCCN)NC(=O)[C@H](CCCCN)NC(=O)[C@@H]1CCCN1C(=O)[C@H](CO)NC(=O)[C@H](CCCCN)NC(=O)[C@H](CCCCN)NC(=O)[C@@H](N)[C@@H](C)O)C(=O)O) [NBC9] | 97800 | 0.00293 | NBC15>NBC8, NBC9, NBC11>NBC7>>>poly-lysine | Although transfection is evident the level of transfection is noticeably lower | – | – | –
2 | H-TRPAWRRAKRRAARRCGVSARRAARRAWRRE-OH [NBC7] | 3670 | 0.000133 | NBC15>NBC8, NBC9, NBC11>NBC7>>>poly-lysine | – | clear biphasic kinetics | – | –
3 | H-TKKKKKKKKKKKKKKKKKKC-OH [NBC14] | 211000 | 0.00075 | – | – | – | significantly better transfection agents than the polydisperse poly-L-lysine | –
4 | NH2-KKSPKKAKKPAAKKSPKKAKKPAAKKSPKKAKKPAYC(Acm)-COOH (H-KKSPKKAKKPAAKKSPKKAKKPAAKKSPKKAKKPAYC(Acm)-OH; SMILES CC(=O)NCSC[C@H](NC(=O)[C@H](Cc1ccc(O)cc1)NC(=O)[C@H](C)NC(=O)[C@@H]1CCCN1C(=O)[C@H](CCCCN)NC(=O)[C@H](CCCCN)NC(=O)[C@H](C)NC(=O)[C@H](CCCCN)NC(=O)[C@H](CCCCN)NC(=O)[C@@H]1CCCN1C(=O)[C@H](CO)NC(=O)[C@H](CCCCN)NC(=O)[C@H](CCCCN)NC(=O)[C@H](C)NC(=O)[C@H](C)NC(=O)[C@@H]1CCCN1C(=O)[C@H](CCCCN)NC(=O)[C@H](CCCCN)NC(=O)[C@H](C)NC(=O)[C@H](CCCCN)NC(=O)[C@H](CCCCN)NC(=O)[C@@H]1CCCN1C(=O)[C@H](CO)NC(=O)[C@H](CCCCN)NC(=O)[C@H](CCCCN)NC(=O)[C@H](C)NC(=O)[C@H](C)NC(=O)[C@@H]1CCCN1C(=O)[C@H](CCCCN)NC(=O)[C@H](CCCCN)NC(=O)[C@H](C)NC(=O)[C@H](CCCCN)NC(=O)[C@H](CCCCN)NC(=O)[C@@H]1CCCN1C(=O)[C@H](CO)NC(=O)[C@H](CCCCN)NC(=O)[C@@H](N)CCCCN)C(=O)O) [NBC13] | – | – | – | – | – | – | NBC11>NBC13>NBC8>>NBC15>>>polylysine
